Measurements: patent publication US9096500B2, “Acyl sulfonamide compounds” (Pfizer Limited, priority 2010, dated 2015)
Counter-ions that a name gives are not always drawn.

Biological target: T1, Nav1.7 (or SCN9A) channel (Homo sapiens, UniProt Q15858)
T1 construct: expressed in transfected cells
Experiment: Nav1.7 (hSCN9A) electrophysiology assay, PatchXpress platform
Format: cell-based
Conditions: estimated IC50 from single point electrophysiology data, HEK cells stably expressing hSCN9A, held at V1/2 of inactivation, read-out: Nav1.7 EIC50
Protocol: The ability of the compounds of formula (I) to block the Nav1.7 (or SCN9A) channel were measured using the assay described below.
Human Embryonic Kidney (HEK) cells were transfected with an hSCN9A construct using lipofectamine reagent (Invitrogen), using standard techniques. Cells stably expressing the hSCN9A constructs were identified by their resistance to G-418 (400 μg/ml). Clones were screened for expression using the whole-cell voltage-clamp technique.
HEK cells stably transfected with hSCN9A were maintained in DMEM medium supplemented with 10% heat-inactivated fetal bovine serum and 400 μg/ml G-418 in an incubator at 37° C. with a humidified atmosphere of 10% CO2. For HTS, cells were harvested from flasks by trypsinization and replated in an appropriate multi-well plate (typically 96 or 384 wells/plate) such that confluence would be achieved within 24 hours of plating. For electrophysiological studies, cells were removed from the culture flask by brief trypsinization and re-plated at low density onto glass cover slips. Cells were typically used for electrophysiological experiments within 24 to 72 hours after plating.
Cover slips containing HEK cells expressing hSCN9A were placed in a bath on the stage of an inverted microscope and perfused (approximately 1 ml/minutes) with extracellular solution of the following composition: 138 mM NaCl, 2 mM CaCl2, 5.4 mM KCl, 1 mM MgCl2, 10 mM glucose, and 10 mM HEPES, pH 7.4, with NaOH. […] The osmolarity of the extracellular and intracellular solutions was 300 mOsm/kg and 295 mOsm/kg, respectively. All recordings were made at room temperature (22-24° C.) using AXOPATCH 200B amplifiers and PCLAMP software (Axon Instruments, Burlingame, Calif.).
hSCN9A currents in HEK cells were measured using the whole-cell configuration of the patch-clamp technique (Hamill et al., 1981). Uncompensated series resistance was typically 2 to 5 mega ohms and >85% series resistance compensation was routinely achieved. […] Current records were acquired at 20 to 50 KHz and filtered at 5 to 10 KHz.
HEK cells stably transfected with hSCN9A were viewed under Hoffman contrast optics and placed in front of an array of flow pipes emitting either control or compound-containing extracellular solutions. All compounds were dissolved in dimethyl sulfoxide to make 10 mM stock solutions, which were then diluted into extracellular solution to attain the final concentrations desired. […] The voltage-dependence of inactivation was determined by applying a series of depolarizing prepulses (8 sec long in 10 mV increments) from a negative holding potential. The voltage was then immediately stepped to 0 mV to assess the magnitude of the sodium current. Currents elicited at 0 mV were plotted as a function of prepulse potential to allow estimation of the voltage at which 50% of the channels were inactivated (midpoint of inactivation or V1/2). Compounds were tested for their ability to inhibit hSCN9A sodium channels by activating the channel with a 20 msec voltage step to 0 mV following an 8 second conditioning prepulse to the empirically determined V1/2. Compound effect (% inhibition) was determined by difference in current amplitude before and after application of test compounds. […] Inhibition values <20% and >80% were excluded from the calculation.
Electrophysiological assays were conducted with PatchXpress 7000 hardware and associated software (Molecular Devices Corp). All assay buffers and solutions were identical to those used in conventional whole-cell voltage clamp experiments described above. hSCN9A cells were grown as above to 50%-80% confluency and harvested by trypsinization. Trypsinized cells were washed and resuspended in extracellular buffer at a concentration of 1×10^6 cells/ml. The onboard liquid handling facility of the PatchXpress was used for dispensing cells and application of test compounds.

T1 sequence (Q15858 whole entry): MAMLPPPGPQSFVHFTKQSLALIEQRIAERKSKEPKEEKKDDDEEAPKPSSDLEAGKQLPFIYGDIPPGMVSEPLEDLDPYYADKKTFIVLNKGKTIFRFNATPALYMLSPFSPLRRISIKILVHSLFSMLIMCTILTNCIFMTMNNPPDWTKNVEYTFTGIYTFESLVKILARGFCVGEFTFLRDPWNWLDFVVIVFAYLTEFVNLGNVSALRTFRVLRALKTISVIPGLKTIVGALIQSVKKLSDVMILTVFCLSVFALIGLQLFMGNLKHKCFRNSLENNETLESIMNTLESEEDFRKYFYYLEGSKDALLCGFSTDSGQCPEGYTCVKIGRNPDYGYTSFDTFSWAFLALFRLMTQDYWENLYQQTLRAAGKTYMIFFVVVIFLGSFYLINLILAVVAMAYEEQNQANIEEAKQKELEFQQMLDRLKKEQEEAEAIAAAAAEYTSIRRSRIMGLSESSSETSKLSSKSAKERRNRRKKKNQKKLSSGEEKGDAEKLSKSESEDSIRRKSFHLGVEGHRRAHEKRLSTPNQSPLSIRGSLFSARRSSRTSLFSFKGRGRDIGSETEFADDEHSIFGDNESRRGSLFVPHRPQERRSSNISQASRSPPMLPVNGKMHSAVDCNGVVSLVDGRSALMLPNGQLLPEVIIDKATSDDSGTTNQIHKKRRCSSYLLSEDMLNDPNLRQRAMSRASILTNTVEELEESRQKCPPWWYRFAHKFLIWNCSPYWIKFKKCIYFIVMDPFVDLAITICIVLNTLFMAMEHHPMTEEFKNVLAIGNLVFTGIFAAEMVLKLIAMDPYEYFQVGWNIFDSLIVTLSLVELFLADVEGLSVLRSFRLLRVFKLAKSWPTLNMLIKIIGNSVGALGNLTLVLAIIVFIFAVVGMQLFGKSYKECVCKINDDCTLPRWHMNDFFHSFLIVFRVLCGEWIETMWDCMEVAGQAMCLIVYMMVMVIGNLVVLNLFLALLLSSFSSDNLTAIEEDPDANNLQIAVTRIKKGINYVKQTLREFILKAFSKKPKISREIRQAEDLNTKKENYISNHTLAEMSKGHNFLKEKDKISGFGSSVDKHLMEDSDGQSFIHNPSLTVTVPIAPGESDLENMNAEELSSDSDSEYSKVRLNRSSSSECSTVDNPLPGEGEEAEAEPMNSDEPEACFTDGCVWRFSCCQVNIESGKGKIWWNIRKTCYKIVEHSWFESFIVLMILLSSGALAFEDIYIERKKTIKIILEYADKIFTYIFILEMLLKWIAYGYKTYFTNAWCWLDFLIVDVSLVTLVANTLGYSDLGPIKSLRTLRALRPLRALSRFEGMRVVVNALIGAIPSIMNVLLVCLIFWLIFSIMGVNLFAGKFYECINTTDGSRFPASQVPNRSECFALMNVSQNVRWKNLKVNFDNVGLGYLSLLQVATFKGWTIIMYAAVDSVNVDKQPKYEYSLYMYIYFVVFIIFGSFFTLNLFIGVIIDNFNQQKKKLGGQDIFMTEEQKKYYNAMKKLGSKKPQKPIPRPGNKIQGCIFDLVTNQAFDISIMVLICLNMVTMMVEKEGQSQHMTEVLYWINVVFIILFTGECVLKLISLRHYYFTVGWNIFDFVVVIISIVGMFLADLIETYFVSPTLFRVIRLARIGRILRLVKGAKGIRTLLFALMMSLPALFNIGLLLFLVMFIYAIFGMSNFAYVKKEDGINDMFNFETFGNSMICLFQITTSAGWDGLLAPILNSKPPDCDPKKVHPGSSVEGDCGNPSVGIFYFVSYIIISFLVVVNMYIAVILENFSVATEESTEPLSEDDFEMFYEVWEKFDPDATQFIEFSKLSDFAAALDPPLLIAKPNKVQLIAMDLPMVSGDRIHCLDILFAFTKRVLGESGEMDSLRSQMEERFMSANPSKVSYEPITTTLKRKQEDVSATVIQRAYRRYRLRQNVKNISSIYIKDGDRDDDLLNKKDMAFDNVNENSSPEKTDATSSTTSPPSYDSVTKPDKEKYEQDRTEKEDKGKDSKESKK

IC50 [nM] | Structure (SMILES)
560 | CCc1ccc(OCc2ccc(C(=O)NS(C)(=O)=O)c(F)c2)cc1 [Example 40, 4-[(4-Ethylphenoxy)methyl]-2-fluoro-N-(methylsulfonyl)benzamide diethylamine salt]
3700 | CCc1ccc(OCc2ccc(C(=O)NS(C)(=O)=O)c(OC)c2)cc1 [Example 41, 4-[(4-Ethylphenoxy)methyl]-2-methoxy-N-(methylsulfonyl)benzamide diethylamine salt]
250 | CCc1ccc(OCc2ccc(C(=O)NS(C)(=O)=O)cc2OC)cc1 [Example 42, 4-[(4-Ethylphenoxy)methyl]-3-methoxy-N-(methylsulfonyl)benzamide diethylamine salt]
4200 | CCc1ccc(OCc2ccc(C(=O)NS(C)(=O)=O)c(C)c2)cc1 [Example 43, 4-[(4-Ethylphenoxy)methyl]-2-methyl-N-(methylsulfonyl)benzamide diethylamine salt]
2000 | CS(=O)(=O)NC(=O)c1cc(F)c(COc2ccc(C#N)cc2Cl)cc1F [Example 44, 4-[(2-Chloro-4-cyanophenoxy)methyl]-2,5-difluoro-N-(methylsulfonyl)benzamide]
1400 | CS(=O)(=O)NC(=O)c1cc(F)c(COc2ccc(Cl)c(C#N)c2)cc1F [Example 47, 4-[(4-Chloro-3-cyanophenoxy)methyl]-2,5-difluoro-N-(methylsulfonyl)benzamide]
1100 | CS(=O)(=O)NC(=O)c1cc(F)c(COc2ccc(F)c(F)c2)cc1F [Example 48, 4-[(3,4-Difluorophenoxy)methyl]-2,5-difluoro-N-(methylsulfonyl)benzamide]
160 | CS(=O)(=O)NC(=O)c1cc(F)c(COc2ccc(Cl)c(F)c2)cc1F [Example 49, 4-[(4-Chloro-3-fluorophenoxy)methyl]-2,5-difluoro-N-(methylsulfonyl)benzamide]
220 | CS(=O)(=O)NC(=O)c1cc(F)c(COc2ccc(Cl)c(OC(F)F)c2)cc1F [Example 50, 4-{[4-chloro-3-(difluoromethoxy)phenoxy]methyl}-2,5-difluoro-N-(methylsulfonyl)benzamide]
12 | CS(=O)(=O)NC(=O)c1cc(F)c(COc2ccc(Cl)c(OC(F)(F)F)c2)cc1F [Example 51, 4-((4-Chloro-3-(trifluoromethoxy)phenoxy)methyl)-2,5-difluoro-N-(methylsulfonyl)benzamide]
130 | CS(=O)(=O)NC(=O)c1cc(F)c(COc2ccc(OC(F)F)c(Cl)c2)cc1F [Example 52, 4-{[3-Chloro-4-(difluoromethoxy)phenoxy]methyl}-2,5-difluoro-N-(methylsulfonyl)benzamide]
13 | CS(=O)(=O)NC(=O)c1cc(F)c(COc2ccc(OC(F)(F)F)c(Cl)c2)cc1F [Example 53, 4-((3-Chloro-4-(trifluoromethoxy)phenoxy)methyl)-2,5-difluoro-N-(methylsulfonyl)benzamide]
130 | CS(=O)(=O)NC(=O)c1cc(F)c(COc2ccc(Cl)c(C(F)(F)F)c2)cc1F [Example 54, 4-((4-Chloro-3-(trifluoromethyl)phenoxy)methyl)-2,5-difluoro-N-(methylsulfonyl)benzamide]
570 | CS(=O)(=O)NC(=O)c1cc(F)c(COc2cc(F)ccc2F)cc1F [Example 55, 4-[(2,5-Difluorophenoxy)methyl]-2,5-difluoro-N-(methylsulfonyl)benzamide]
88 | CS(=O)(=O)NC(=O)c1cc(F)c(COc2cccc(OC(F)(F)F)c2)cc1F [Example 56, 4-[(3-Trifluoromethoxy)methyl]-2,5-difluoro-N-(methylsulfonyl)benzamide]
1100 | CS(=O)(=O)NC(=O)c1cc(F)c(COc2cc(F)c(F)cc2F)cc1F [Example 57, 2,5-Difluoro-N-(methylsulfonyl)-4-[(2,4,5-trifluorophenoxy)methyl]benzamide]
21 | CS(=O)(=O)NC(=O)c1cc(Cl)c(OCc2ccc(C(F)(F)F)c(Cl)c2)cc1F [Example 58, 5-Chloro-4-(3-chloro-4-(trifluoromethyl)benzyloxy)-2-fluoro-N-(methylsulfonyl)benzamide]

Further lines, the molecule ahead of its results:

Structure (SMILES) | IC50 [nM]
Cc1nccn1-c1ccc(COc2ccc(C(=O)NS(C)(=O)=O)cc2)cc1 [Example 22, 4-(4-(2-methyl-1H-imidazol-1-yl)benzyloxy)-N-(methylsulfonyl)benzamide] | > 3000
CCC(C)S(=O)(=O)NC(=O)c1cc(F)c(COc2ccc(Cl)c(Cl)c2)cc1F (stereo not shown) [Example 23, N-(sec-Butylsulfonyl)-4-((3,4-dichlorophenoxy)methyl)-2,5-difluorobenzamide] | 380
CS(=O)(=O)NC(=O)c1ccc(COc2ccc(Cl)cc2Cl)cc1 [Example 24, 4-((2,4-Dichlorophenoxy)methyl)-N-(methylsulfonyl)benzamide Diethylamine salt] | 780
CCc1ccc(OCc2ccc(C(=O)NS(C)(=O)=O)cc2)cc1 [Example 25, 4-((4-Ethylphenoxy)methyl)-N-(methylsulfonyl)benzamide Diethylamine salt] | 720
CS(=O)(=O)NC(=O)c1ccc(COc2ccc(C(F)(F)F)cc2-c2ccnnc2)cc1 [Example 26, N-(methylsulfonyl)-4-{[2-pyridazin-4-yl-4-(trifluoromethyl)phenoxy]methyl}benzamide] | 78
CS(=O)(=O)NC(=O)c1ccc(COc2ccc(Cl)c(C(F)(F)F)c2)cc1 [Example 27, 4-{[4-Chloro-3-(trifluoromethyl)phenoxy]methyl}-N-(methylsulfonyl)benzamide] | 380
CS(=O)(=O)NC(=O)c1ccc(COc2ccc(Cl)c(Cl)c2)cc1 [Example 28, 4-[(3,4-Dichlorophenoxy)methyl]-N-(methylsulfonyl)benzamide] | 58
CS(=O)(=O)NC(=O)c1ccc(COc2ccc(Cl)c(Cl)c2)c(Cl)c1 [Example 29, 3-Chloro-4-((3,4-dichlorophenoxy)methyl)-N-(methylsulfonyl)benzamide Diethylamine salt] | 86
COc1cc(COc2ccc(Cl)c(Cl)c2)ccc1C(=O)NS(C)(=O)=O [Example 30, 4-[(3,4-Dichlorophenoxy)methyl]-2-methoxy-N-(methylsulfonyl)benzamide] | 1900
COc1ccccc1OCc1ccc(C(=O)NS(C)(=O)=O)cc1 [Example 34, 4-[(2-Methoxyphenoxy)methyl]-N-(methylsulfonyl)benzamide] | 8500
CS(=O)(=O)NC(=O)c1ccc(COc2cccc(C3CCNCC3)c2)cc1 [Example 35, N-(Methylsulfonyl)-4-[(3-piperidin-4-ylphenoxy)methyl]benzamide] | > 3000
CS(=O)(=O)NC(=O)c1ccc(COc2ccc(C3CCNCC3)cc2)cc1 [Example 36, N-(methylsulfonyl)-4-[(4-piperidin-4-ylphenoxy)methyl]benzamide diethylamine salt] | > 3000
Cn1nccc1-c1ccc(OCc2ccc(C(=O)NS(C)(=O)=O)cc2)cc1 [Example 37, 4-{[4-(1-Methyl-1H-pyrazol-5-yl)phenoxy]methyl}-N-(methylsulfonyl)benzamide diethylamine salt] | > 3000
Cn1nccc1-c1cc(Cl)ccc1OCc1ccc(C(=O)NS(C)(=O)=O)cc1 [Example 38, 4-{[4-Chloro-2-(1-methyl-1H-pyrazol-5-yl)phenoxy]methyl}-N-(methylsulfonyl)benzamide diethylamine salt] | > 3000
